assay: recombinant barcode read abundance after kanamycin selection (control-corrected) (log10(CPM+1)); higher = more efficient recombination; sequences stand for … in AGTGCAGAGAAAATCGGCCAGTTTTCTCTGCCTGCAGTCCGCATGCCGT…AGATTTATGCAGCGGACTGCCTTTCTCCCAAAGTGATAAACCGGACAGTATCATGGACCGGTTTTCCCGGTAATCCGTATTTGCAAGGTTGGTTTCACT; site = the 11-nt target
How it was run: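 IS621 bridge RNA target-binding loops were paired with targets in a pooled library tested in E. coli. After co-electroporation with a donor plasmid, cells were plated in two replicates on chloramphenicol/ampicillin LB agar (control) and on chloramphenicol/ampicillin/kanamycin carrying 0.1 mM IPTG. Barcodes at recombinant junctions were counted as counts per million, averaged and control-corrected to give recombination efficiency. Values are log10(CPM+1).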
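Note: IS621 recombinase and bridge RNA in Escherichia coli cells.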

Sequence	recombinant barcode read abundance (log10)
CGGCGTCCTTGGGTTCTAACCTGTTGCCT (site CGGCGTCCTAG)	1.24
CGGCGTCCTTGGGTTCTAACCTGTTGCCT (site CGGCGTCCTCG)	0.0739
CGGCGTCCTTGGGTTCTAACCTGTTGCTA (site CGGAGTCCTTA)	0.0265
CGGCGTCCTTGGGTTCTAACCTGTTGCTA (site CGGCGTCCTTA)	0.452
CGGCGTCCTTGGGTTCTAACCTGTTGCTA (site CGGGGTCCTTA)	0.113
CGGCGTCCTTGGGTTCTAACCTGTTGCTA (site CGGTGTCCTTA)	0.42
CGGCTACCTTGGGTTCTAACCTGTTGCCT (site CAGCTACCTAG)	0.194
CGGCTACCTTGGGTTCTAACCTGTTGCCT (site CCGCTACCTAG)	0.13
CGGCTACCTTGGGTTCTAACCTGTTGCCT (site CGGCTACCTAG)	1.96
CGGCTACCTTGGGTTCTAACCTGTTGCCT (site CTGCTACCTAG)	0.429
CGGCTCACTTGGGTTCTAACCTGTTGCTA (site CGGCACACTAA)	0.0598
CGGCTCACTTGGGTTCTAACCTGTTGCTA (site CGGCTCACTTA)	2.31
CGGCTGACTTGGGTTCTAACCTGTTGCCT (site CGGCTCACTAG)	0.446
CGGCTGACTTGGGTTCTAACCTGTTGCCT (site CGGCTGACTAG)	1.46
CGGGCCTCTTGGGTTCTAACCTGTTGCTA (site CGGGCCTCTAA)	0.185
CGGGCCTCTTGGGTTCTAACCTGTTGCTA (site CGGGCCTCTCA)	0
CGGGCCTCTTGGGTTCTAACCTGTTGCTA (site CGGGCCTCTGA)	1.27
CGGGCCTCTTGGGTTCTAACCTGTTGCTA (site CGGGCCTCTTA)	2.38
CGGGCCTCTTGGGTTCTAACCTGTTGCTT (site CGGGCCTCTAA)	2.03
CGGGCCTCTTGGGTTCTAACCTGTTGCTT (site CGGGCCTCTCA)	0.148
CGGGCCTCTTGGGTTCTAACCTGTTGCTT (site CGGGCCTCTGA)	0.469
CGGGCCTCTTGGGTTCTAACCTGTTGCTT (site CGGGCCTCTTA)	0.336

Sequence	recombinant barcode read abundance (log10)
CGGGCGCCTTGGGTTCTAACCTGTTGCGG (site CGGCCGACTCC)	0.0157
CGGGCGCCTTGGGTTCTAACCTGTTGCGG (site CGGGCGCCTCC)	2.14
CGGGTGCCTTGGGTTCTAACCTGTTGCCT (site CAGGTGCCTAG)	0.379
CGGGTGCCTTGGGTTCTAACCTGTTGCCT (site CCGGTGCCTAG)	0.717
CGGGTGCCTTGGGTTCTAACCTGTTGCCT (site CGGGTGCCTAG)	1.66
CGGGTGCCTTGGGTTCTAACCTGTTGCCT (site CTGGTGCCTAG)	0.0879
CGGTAACCTTGGGTTCTAACCTGTTGCCT (site AGGTAACCTAG)	0.429
CGGTAACCTTGGGTTCTAACCTGTTGCCT (site CGGTAACCTAG)	0.761
CGGTAACCTTGGGTTCTAACCTGTTGCCT (site GGGTAACCTAG)	0.185
CGGTAACCTTGGGTTCTAACCTGTTGCCT (site TGGTAACCTAG)	0.753
CGGTAGTCTTGGGTTCTAACCTGTTGCTT (site CGGTAGTCTAA)	1.41
CGGTAGTCTTGGGTTCTAACCTGTTGCTT (site CGGTAGTCTCA)	0.0659
CGGTGTCCTTGGGTTCTAACCTGTTGCTA (site CGGAGTCCTTA)	0.0633
CGGTGTCCTTGGGTTCTAACCTGTTGCTA (site CGGCGTCCTTA)	0.586
CGGTGTCCTTGGGTTCTAACCTGTTGCTA (site CGGGGTCCTTA)	0.225
CGGTGTCCTTGGGTTCTAACCTGTTGCTA (site CGGTGTCCTTA)	1.33
CGGTTTCCTTGGGTTCTAACCTGTTGCCT (site CGGTTTCCTAG)	0.848
CGGTTTCCTTGGGTTCTAACCTGTTGCCT (site CTATTTCCTAG)	0.0218
CGTAAGTCTTGGGTTCTAACCTGTTGCCT (site CGTAAGTCTAG)	1.11
CGTAAGTCTTGGGTTCTAACCTGTTGCCT (site TATAAGTCTAG)	0.0991
CGTACGACTTGGGTTCTAACCTGTTGCAT (site CGTACGACTAT)	0.215
CGTACGACTTGGGTTCTAACCTGTTGCAT (site CGTCCGACTAT)	0.451

Sequence	recombinant barcode read abundance (log10)
CGTACGACTTGGGTTCTAACCTGTTGCAT (site CGTGCGACTAT)	0.236
CGTACGACTTGGGTTCTAACCTGTTGCAT (site CGTTCGACTAT)	0.0932
CGTAGGTCTTGGGTTCTAACCTGTTGCCT (site CGTAGGTCTAG)	0.101
CGTAGGTCTTGGGTTCTAACCTGTTGCCT (site CTTAGCTCTAG)	0.0284
CGTCCTCCTTGGGTTCTAACCTGTTGCAT (site CCGCCTCCTAT)	0.00736
CGTCCTCCTTGGGTTCTAACCTGTTGCAT (site CGTCCTCCTAT)	0.089
CGTCCTGCTTGGGTTCTAACCTGTTGCTT (site CGTCCTGCTAA)	0.527
CGTCCTGCTTGGGTTCTAACCTGTTGCTT (site TAGGGGACTTT)	0.0676
CGTCGCACTTGGGTTCTAACCTGTTGCCT (site CATCGCACTAG)	0.234
CGTCGCACTTGGGTTCTAACCTGTTGCCT (site CCTCGCACTAG)	0.029
CGTCGCACTTGGGTTCTAACCTGTTGCCT (site CGTCGCACTAG)	0.0318
CGTCGCACTTGGGTTCTAACCTGTTGCCT (site CTTCGCACTAG)	0.164
CGTCGTACTTGGGTTCTAACCTGTTGCCT (site CGACGTACTAG)	0.504
CGTCGTACTTGGGTTCTAACCTGTTGCCT (site CGCCGTACTAG)	0.0657
CGTCGTACTTGGGTTCTAACCTGTTGCCT (site CGGCGTACTAG)	0.0235
CGTCGTACTTGGGTTCTAACCTGTTGCCT (site CGTCGTACTAG)	0.136
CGTCTCCCTTGGGTTCTAACCTGTTGCCT (site CCTCTGCCTAG)	0.0171
CGTCTCCCTTGGGTTCTAACCTGTTGCCT (site CGTCTCCCTAG)	0.451
CGTGTAACTTGGGTTCTAACCTGTTGCCT (site CGTATATCTAG)	0.13
CGTGTAACTTGGGTTCTAACCTGTTGCCT (site CGTGTAACTAG)	0.332
CGTTCGACTTGGGTTCTAACCTGTTGCAT (site CGTACGACTAT)	0.131
CGTTCGACTTGGGTTCTAACCTGTTGCAT (site CGTCCGACTAT)	0.0713

Sequence	recombinant barcode read abundance (log10)
CGTTCGACTTGGGTTCTAACCTGTTGCAT (site CGTGCGACTAT)	0.174
CGTTCGACTTGGGTTCTAACCTGTTGCAT (site CGTTCGACTAT)	0.133
CGTTCGACTTGGGTTCTAACCTGTTGCCT (site CGTTCAACTAG)	0.0692
CGTTCGACTTGGGTTCTAACCTGTTGCCT (site CGTTCCACTAG)	0
CGTTCGACTTGGGTTCTAACCTGTTGCCT (site CGTTCGACTAG)	0.0748
CGTTCGACTTGGGTTCTAACCTGTTGCCT (site CGTTCTACTAG)	0.0286
CGTTCTCCTTGGGTTCTAACCTGTTGCCT (site AGTTCTCCTAG)	0.0567
CGTTCTCCTTGGGTTCTAACCTGTTGCCT (site CGTTCTCCTAG)	0.0201
CGTTCTCCTTGGGTTCTAACCTGTTGCCT (site GGTTCTCCTAG)	0.0547
CGTTCTCCTTGGGTTCTAACCTGTTGCCT (site TGTTCTCCTAG)	0.121
CGTTGCCCTTGGGTTCTAACCTGTTGCCT (site CATTGCCCTAG)	0.19
CGTTGCCCTTGGGTTCTAACCTGTTGCCT (site CCTTGCCCTAG)	0.0881
CGTTGCCCTTGGGTTCTAACCTGTTGCCT (site CGTTGCCCTAG)	0.166
CGTTGCCCTTGGGTTCTAACCTGTTGCCT (site CTTTGCCCTAG)	0.468
CGTTGGTCTTGGGTTCTAACCTGTTGCGA (site CGTTGGTCTTC)	0.759
CGTTGGTCTTGGGTTCTAACCTGTTGCGA (site TTGCATCCTCT)	0.0731
CGTTTCCCTTGGGTTCTAACCTGTTGCAG (site CGTTTCCCTAC)	0.152
CGTTTCCCTTGGGTTCTAACCTGTTGCAG (site CGTTTCCCTCT)	0.427
CGTTTCCCTTGGGTTCTAACCTGTTGCGT (site CGTTTCCCTAC)	1.04
CGTTTCCCTTGGGTTCTAACCTGTTGCGT (site CGTTTCCCTCT)	0.0161
